Results: US20170349532A1, “CATIONIC LIPID” (Kyowa Hakko Kirin Co., Ltd., priority 2011, published 2017)

test: Average particle diameter of preparation (Zetasizer Nano ZS); format: physicochemical; settings: average particle diameter of cationic lipid/nucleic acid complex; Example 118 preparation: compound/PEG-DMPE Na/DSPC/cholesterol with apo-b siRNA
Source text: Preparations were produced using the compounds obtained in Examples 1 to 117, as follows.
APO-B siRNA was used as the nucleic acid. APO-B siRNA suppresses expression of an apolipoprotein-B (hereinafter, “apo-b”) gene and has a sense strand with the base sequence 5′-GmUCAmUCACACmUGAAmUACCAAmU-3′ (the sugars attached to the bases appended with m are 2′-O-methyl-substituted riboses), and an antisense strand with the base sequence 5′-[…]-3′ (the 5′-end is phosphorylated). The sense strand and the antisense strand were obtained from Nippon EGT, GeneDesign, Inc., Invitrogen or Hokkaido System Science Co., Ltd., and annealed to prepare the nucleic acid (hereinafter, “apo-b siRNA”).
A solution comprising the constituent components was prepared by dissolving each of the weighed samples in 90 vol % ethanol in 8.947/1.059/5.708/13.697 mmol/L [compounds 1 to 117 obtained in Examples 1 to 117/sodium 1,2-dimyristoyl-sn-glycero-3-phosphoethanolamine-N-(methoxy(polyethylene glycol)-2000) (PEG-DMPE Na,N-(carbonylmethoxypolyethylene glycol 2000)-1,2-dimyristoyl-sn-glycero-3-phosphoethanolamine sodium salt, NOF Corporation)/distearoylphosphatidyl choline (DSPC, 1,2-distearoyl-sn-glycero-3-phosphocholine, NOF Corporation)/cholesterol (Avanti Polar Lipids)]. Separately, apo-b siRNA/distilled water (24 mg/mL) was diluted with a Tris-EDTA buffer (200 mM Tris-HCl, 20 mM EDTA, Invitrogen) and a 20 mM citric acid buffer (pH 5.0) to prepare a 1.5 mg/mL apo-b siRNA aqueous solution (2 mM Tris-EDTA/20 mM citric acid buffer, pH 5.0).
The resulting lipid solution was heated to 37° C., and a 100-μL portion was transferred to a preparation container. The apo-b siRNA aqueous solution (100 μL) was then added thereto while being stirred. Then, a 20 mM citric acid buffer (containing 300 mM NaCl, pH 6.0; 200 μL) was added to the lipid nucleic acid mixed suspension (200 μL) while being stirred. The siRNA concentration was brought to 10 μM by dropping a Dulbecco phosphate buffer (DPBS, Invitrogen; 662 μL), and preparations (compositions comprising compounds 1 to 117 and the nucleic acid) were obtained.
The average particle diameter of the complex between the cationic lipis and the nucleic acid in each preparation was measured with a particle diameter measurement device (Malvern; Zetasizer Nano ZS).

Going from `CCCCCC/C=C\CCCCCCCCOC[C@@H]1CNC[C@H]1COCCCCCCCC/C=C\CCCCCC` (relative stereo) [Compound 44, trans-3,4-bis(((Z)-Hexadec-9-enyloxy)methyl)pyrrolidine] to `CCCCCCCC/C=C\CCCCCCCCOC[C@@H]1CNC[C@H]1COCCCCCCCC/C=C\CCCCCCCC` (relative stereo) [Compound 101, trans-3,4-bis(((Z)-Octadec-9-enyloxy)methyl)pyrrolidine], the “Particle diameter of Preparetion” value rises from 143.5 nm to 148.7 nm.

First: CCCCCC/C=C\CCCCCCCCOC[C@@H]1CN(C)C[C@H]1COCCCCCCCC/C=C\CCCCCC (relative stereo) [Compound 51, trans-3,4-bis(((Z)-Hexadec-9-enyloxy)methyl)-1-methylpyrrolidine]
Second: CCCCCCCC/C=C\CCCCCCCCOC[C@@H]1CN(C)C[C@H]1COCCCCCCCC/C=C\CCCCCCCC (relative stereo) [Compound 106, trans-1-Methyl-3,4-bis(((Z)-octadec-9-enyloxy)methyl)pyrrolidine]
The “Particle diameter of Preparetion” value of the first is lower: 123.9 nm for the first, 139.2 nm for the second.

First: CCCCC/C=C\C/C=C\CCCCCCCCOC[C@@H]1CNC[C@H]1COCCCCCCCC/C=C\C/C=C\CCCCC (relative stereo) [Compound 102, trans-3,4-bis(((9Z,12Z)-Octadec-9,12-dienyloxy)methyl)pyrrolidine]
Second: CCCCC/C=C\C/C=C\CCCCCCCCCCOC[C@@H]1CNC[C@H]1COCCCCCCCCCC/C=C\C/C=C\CCCCC (relative stereo) [Compound 103, trans-3,4-bis(((11Z,14Z)-Icos-11,14-dienyloxy)methyl)pyrrolidine]
The “Particle diameter of Preparetion” value of the first is lower: 133.0 nm for the first, 141.8 nm for the second.

Compared with `CCCCCCCC/C=C\CCCCCCCC(=O)OC[C@@H]1CNC[C@H]1COC(=O)CCCCCCC/C=C\CCCCCCCC` (relative stereo) [Compound 104, trans-3,4-bis(((Z)-Octadec-9-enoyloxy)methyl)pyrrolidine], `CCCCCCCC/C=C\CCCCCCCC(=O)OC[C@@H]1CN(C)C[C@H]1COC(=O)CCCCCCC/C=C\CCCCCCCC` (relative stereo) [Compound 109, trans-1-Methyl-3,4-bis(((Z)-octadec-9-enoyloxy)methyl)pyrrolidine] is lower in “Particle diameter of Preparetion” value: 141.5 nm for the first, 129.6 nm for the second.

First: CCCCC/C=C\C/C=C\CCCCCCCC(=O)OC[C@@H]1CNC[C@H]1COC(=O)CCCCCCC/C=C\C/C=C\CCCCC (relative stereo) [Compound 105, trans-3,4-bis(((9Z,12Z)-Octadec-9,12-dienoyloxy)methyl)pyrrolidine]
Second: CCCCC/C=C\C/C=C\CCCCCCCCOC[C@@H]1CN(C)C[C@H]1COCCCCCCCC/C=C\C/C=C\CCCCC (relative stereo) [Compound 107, trans-1-Methyl-3,4-bis(((9Z,12Z)-octadec-9,12-dienyloxy)methyl)pyrrolidine]
The “Particle diameter of Preparetion” value of the first is lower: 125.6 nm for the first, 139.1 nm for the second.

Compared with `CCCCC/C=C\C/C=C\CCCCCCCCCCOC[C@@H]1CN(C)C[C@H]1COCCCCCCCCCC/C=C\C/C=C\CCCCC` (relative stereo) [Compound 108, trans-3,4-bis(((11Z,14Z)-Icos-11,14-dienyloxy)methyl)-1-methylpyrrolidine], `CCCCC/C=C\C/C=C\CCCCCCCCOC[C@@H]1C[N+](C)(C)C[C@H]1COCCCCCCCC/C=C\C/C=C\CCCCC.[Cl-]` (relative stereo) [Compound 112, trans-1,1-Dimethyl-3,4-bis(((9Z,12Z)-octadec-9,12-dienyloxy)methyl)pyrrolidinium chloride] is lower in “Particle diameter of Preparetion” value: 144.9 nm for the first, 119.2 nm for the second.

In the case of `CCCCCCCC/C=C\CCCCCCCCOC[C@@H]1C[N+](C)(C)C[C@H]1COCCCCCCCC/C=C\CCCCCCCC.[Cl-]` (relative stereo) [Compound 111, trans-1,1-Dimethyl-3,4-bis(((Z)-octadec-9-enyloxy)methyl)pyrrolidinium chloride], the “Particle diameter of Preparetion” value is reported as 112.0 nm.
